Converted amounts (≈) assume the structure as drawn.
Assays:
Assay type in all cases: cell-based
Serratia No. 115 = assay: antimicrobial activity, minimum inhibitory concentration, Serratia No. 115
Protocol: (§1) The antimicrobial activities of the compounds prepared in the previous Examples were determined in a usual manner and the minimum inhibitory concentrations (in terms of μg/ml) are set forth in the Table below.

[1] = tested on: Enterobacter aerogenes No. 101; assay: antimicrobial activity, minimum inhibitory concentration, Enterobacter aerogenes No. 101; conditions: Klebsiella aerogenes
Protocol: as §1

Proteus vulgaris HX 19 = assay: antimicrobial activity, minimum inhibitory concentration, Proteus vulgaris HX 19; conditions: HX19
Protocol: as §1

[2] = tested on: Pseudomonas aeruginosa IID 5142; assay: antimicrobial activity, minimum inhibitory concentration, Pseudomonas aeruginosa IID 5142; conditions: IID5142
Protocol: as §1

Escherichia coli NIHJ = assay: antimicrobial activity, minimum inhibitory concentration, Escherichia coli NIHJ

| SMILES | MIC (Serratia No. 115) [µg/mL] | MIC [1] [µg/mL] | MIC (Proteus vulgaris HX 19) [µg/mL] | MIC [2] [µg/mL] | MIC (Escherichia coli NIHJ) [µg/mL] |
| --- | --- | --- | --- | --- | --- |
| COC1(NC(=O)C(NC(=O)c2cnccc2O)c2cccs2)C(=O)N2C(C(=O)O)=C(CSc3nnnn3C)CSC21 (stereo not shown) [Example 34] | 50 (≈ 80.8 µM) | 12.5 (≈ 20.2 µM) | 0.39 (≈ 0.63 µM) | 6.25 (≈ 10.1 µM) | 12.5 (≈ 20.2 µM) |
| COC1(NC(=O)C(NC(=O)c2cnc3cccnc3c2O)c2ccco2)C(=O)N2C(C(=O)O)=C(CSc3nnnn3C)CSC21 (stereo not shown) [Example 35] | 6.25 (≈ 9.56 µM) | 3.13 (≈ 4.79 µM) | 0.39 (≈ 0.597 µM) | 3.13 (≈ 4.79 µM) | 1.56 (≈ 2.39 µM) |
| COC1(NC(=O)C(NC(=O)c2cnc3cccnc3c2O)C2=CCCCC2)C(=O)N2C(C(=O)O)=C(COC(C)=O)CSC21 (stereo not shown) [Example 36] | 50 (≈ 81.7 µM) | 12.5 (≈ 20.4 µM) | 0.39 (≈ 0.638 µM) | 3.13 (≈ 5.12 µM) | 3.13 (≈ 5.12 µM) |
| COC1(NC(=O)C(NC(=O)c2cnc3cncnc3c2O)c2ccc(O)cc2)C(=O)N2C(C(=O)[O-])=C(C[n+]3ccc(C(N)=O)cc3)CSC21 (stereo not shown) [Example 37] | 50 (≈ 72.8 µM) | 6.25 (≈ 9.1 µM) | 0.78 (≈ 1.14 µM) | 12.5 (≈ 18.2 µM) | 6.25 (≈ 9.1 µM) |
| COC1(NC(=O)C(NC(=O)c2cnc3ccncc3c2O)c2ccc(O)cc2)C(=O)N2C(C(=O)O)=C(CSc3nnnn3C)CSC21 (stereo not shown) [Example 38] | 25 (≈ 36.8 µM) | 12.5 (≈ 18.4 µM) | 0.78 (≈ 1.15 µM) | 12.5 (≈ 18.4 µM) | 12.5 (≈ 18.4 µM) |
| COc1cc(C(NC(=O)c2cnc3cccnc3c2O)C(=O)NC2(OC)C(=O)N3C(C(=O)O)=C(COC(N)=O)CSC32)ccc1O (stereo not shown) [Example 39] | 50 (≈ 76.4 µM) | 12.5 (≈ 19.1 µM) | 0.78 (≈ 1.19 µM) | 3.13 (≈ 4.78 µM) | 3.13 (≈ 4.78 µM) |
| COC1(NC(=O)C(NC(=O)c2cnc3cccnc3c2O)c2cc(Cl)c(O)c(Cl)c2)C(=O)N2C(C(=O)O)=C(CSc3nnc(C)s3)CSC21 (stereo not shown) [Example 40] | 12.5 (≈ 16.3 µM) | 6.25 (≈ 8.17 µM) | 0.78 (≈ 1.02 µM) | 3.13 (≈ 4.09 µM) | 6.25 (≈ 8.17 µM) |
| COC1(NC(=O)C(NC(=O)c2cnccc2O)c2ccc(O)c(F)c2)C(=O)N2C(C(=O)O)=C(CSc3nnnn3C)CSC21 (stereo not shown) [Example 41] | 50 (≈ 77.3 µM) | 12.5 (≈ 19.3 µM) | 0.39 (≈ 0.603 µM) | 6.25 (≈ 9.67 µM) | 12.5 (≈ 19.3 µM) |
| COC1(NC(=O)C(NC(=O)c2cnccc2O)c2cccc(O)c2)C(=O)N2C(C(=O)O)=C(CSc3nnc(CO)s3)CSC21 (stereo not shown) [Example 42] | 50 (≈ 75.7 µM) | 25 (≈ 37.8 µM) | 0.78 (≈ 1.18 µM) | 12.5 (≈ 18.9 µM) | 12.5 (≈ 18.9 µM) |
| COc1nc(OC)c2c(O)c(C(=O)NC(C(=O)NC3(OC)C(=O)N4C(C(=O)O)=C(CSc5nncs5)CSC43)c3ccc(O)cc3)cnc2n1 (stereo not shown) [Example 43] | 50 (≈ 67.3 µM) | 25 (≈ 33.7 µM) | 1.56 (≈ 2.1 µM) | 12.5 (≈ 16.8 µM) | 12.5 (≈ 16.8 µM) |
| COC1(NC(=O)C(NC(=O)c2cnccc2O)c2ccc(O)c(O)c2)C(=O)N2C(C(=O)O)=C(COC(N)=O)CSC21 (stereo not shown) [Example 44] | 100 (≈ 170 µM) | 50 (≈ 84.8 µM) | 0.78 (≈ 1.32 µM) | 12.5 (≈ 21.2 µM) | 12.5 (≈ 21.2 µM) |
| COC1(NC(=O)C(NC(=O)c2cnc3cccnc3c2O)c2ccc(O)c(O)c2)C(=O)N2C(C(=O)O)=C(CSc3nnc(C)s3)CSC21 (stereo not shown) [Example 45] | 12.5 (≈ 17.6 µM) | 12.5 (≈ 17.6 µM) | 0.78 (≈ 1.1 µM) | 6.25 (≈ 8.78 µM) | 3.13 (≈ 4.4 µM) |
| COC1(NC(=O)C(NC(=O)c2cnc3cn[nH]c3c2O)c2ccc(O)cc2)C(=O)N2C(C(=O)O)=C(CSc3nnnn3C)CSC21 (stereo not shown) [Example 46] | 6.25 (≈ 9.35 µM) | 6.25 (≈ 9.35 µM) | 0.39 (≈ 0.583 µM) | 6.25 (≈ 9.35 µM) | 1.56 (≈ 2.33 µM) |
| COC1(NC(=O)C(NC(=O)c2cnc3cccnc3c2O)c2ccc(O)cc2)C(=O)N2C(C(=O)O)=C(CSc3ccc4nnnn4n3)CSC21 (stereo not shown) [Example 47] | 12.5 (≈ 17.4 µM) | 6.25 (≈ 8.72 µM) | 0.39 (≈ 0.544 µM) | 6.25 (≈ 8.72 µM) | 3.13 (≈ 4.37 µM) |
| COC1(NC(=O)C(NC(=O)c2cnc3cccnc3c2O)c2cccs2)C(=O)N2C(C(=O)O)=C(COC(N)=O)CSC21 (stereo not shown) [Example 48] | 25 (≈ 40.7 µM) | 6.25 (≈ 10.2 µM) | 0.39 (≈ 0.635 µM) | 3.13 (≈ 5.09 µM) | 3.13 (≈ 5.09 µM) |
| COC1(NC(=O)C(NC(=O)c2nnc(O)nc2O)c2ccccc2)C(=O)N2C(C(=O)O)=C(COC(C)=O)CSC21 (stereo not shown) [Example 49] | 100 (≈ 174 µM) | 50 (≈ 87 µM) | 1.56 (≈ 2.72 µM) | 25 (≈ 43.5 µM) | 25 (≈ 43.5 µM) |
| COC1(NC(=O)C(NC(=O)c2nnc(O)nc2O)c2ccc(O)cc2)C(=O)N2C(C(=O)O)=C(CSc3nnnn3C)CSC21 (stereo not shown) [Example 50] | 50 (≈ 77.3 µM) | 25 (≈ 38.7 µM) | 1.56 (≈ 2.41 µM) | 12.5 (≈ 19.3 µM) | 12.5 (≈ 19.3 µM) |
| COC1(NC(=O)C(NC(=O)c2nnc(SC)nc2O)c2ccccc2)C(=O)N2C(C(=O)O)=C(COC(N)=O)CSC21 (stereo not shown) [Example 51] | 100 (≈ 165 µM) | 50 (≈ 82.6 µM) | 1.56 (≈ 2.58 µM) | 25 (≈ 41.3 µM) | 25 (≈ 41.3 µM) |
| COC1(NC(=O)C(NC(=O)c2nnc(O)nc2O)c2ccc(O)cc2)C(=O)N2C(C(=O)O)=C(COC(N)=O)CSC21 (stereo not shown) [Example 52] | 100 (≈ 169 µM) | 50 (≈ 84.5 µM) | 1.56 (≈ 2.64 µM) | 25 (≈ 42.3 µM) | 25 (≈ 42.3 µM) |
| COC1(NC(=O)C(NC(=O)c2nnc(S)nc2O)c2ccccc2)C(=O)N2C(C(=O)O)=C(CSc3nnc(C)s3)CSC21 (stereo not shown) [Example 53] | 100 (≈ 151 µM) | 50 (≈ 75.4 µM) | 1.56 (≈ 2.35 µM) | 25 (≈ 37.7 µM) | 25 (≈ 37.7 µM) |

Source: US4226863A, “7-Methoxy cephalosporins” (Sumitomo Chemical Company, Limited, priority 1975, dated 1980)
